Our source for the IC50 values is ChEMBL document CHEMBL4000237, “Synthesis and biological evaluation of thiazole derivatives as novel USP7 inhibitors” (Bioorg Med Chem Lett, 2017).

One assay has as its system HCT-116. Briefly: Antiproliferative activity against human HCT116 cells expressing wild type p53 assessed as decrease in cell viability after 72 hrs by MTT assay. To be noted: HCT-116, 72 h. In general terms: Tetrazolium assays rely on reduction of a dye to a coloured formazan, in cell work by metabolically active cells.
In assay [1] the target is Ubiquitin carboxyl-terminal hydrolase 7 (Homo sapiens, UniProt Q93009). Put plainly: Inhibition of USP7 (unknown origin) using Ub-Rho as substrate preincubated for 30 mins followed by substrate addition and subsequent incubation in dark for 3 hrs by fluorescence assay.
Assay [2] is described as follows: Antiproliferative activity against human […] cells expressing p53 mutant assessed as decrease in cell viability after 72 hrs by MTT assay. Type of assay: functional, cell-based.
In another assay the test system is NCI-H1299. Briefly: Antiproliferative activity against p53 deficient human NCI-H1299 cells assessed as decrease in cell viability after 72 hrs by MTT assay. Particulars: NCI-H1299, 72 h. Type of assay: functional, cell-based.

Chain of Ubiquitin carboxyl-terminal hydrolase 7 (Q93009 whole entry): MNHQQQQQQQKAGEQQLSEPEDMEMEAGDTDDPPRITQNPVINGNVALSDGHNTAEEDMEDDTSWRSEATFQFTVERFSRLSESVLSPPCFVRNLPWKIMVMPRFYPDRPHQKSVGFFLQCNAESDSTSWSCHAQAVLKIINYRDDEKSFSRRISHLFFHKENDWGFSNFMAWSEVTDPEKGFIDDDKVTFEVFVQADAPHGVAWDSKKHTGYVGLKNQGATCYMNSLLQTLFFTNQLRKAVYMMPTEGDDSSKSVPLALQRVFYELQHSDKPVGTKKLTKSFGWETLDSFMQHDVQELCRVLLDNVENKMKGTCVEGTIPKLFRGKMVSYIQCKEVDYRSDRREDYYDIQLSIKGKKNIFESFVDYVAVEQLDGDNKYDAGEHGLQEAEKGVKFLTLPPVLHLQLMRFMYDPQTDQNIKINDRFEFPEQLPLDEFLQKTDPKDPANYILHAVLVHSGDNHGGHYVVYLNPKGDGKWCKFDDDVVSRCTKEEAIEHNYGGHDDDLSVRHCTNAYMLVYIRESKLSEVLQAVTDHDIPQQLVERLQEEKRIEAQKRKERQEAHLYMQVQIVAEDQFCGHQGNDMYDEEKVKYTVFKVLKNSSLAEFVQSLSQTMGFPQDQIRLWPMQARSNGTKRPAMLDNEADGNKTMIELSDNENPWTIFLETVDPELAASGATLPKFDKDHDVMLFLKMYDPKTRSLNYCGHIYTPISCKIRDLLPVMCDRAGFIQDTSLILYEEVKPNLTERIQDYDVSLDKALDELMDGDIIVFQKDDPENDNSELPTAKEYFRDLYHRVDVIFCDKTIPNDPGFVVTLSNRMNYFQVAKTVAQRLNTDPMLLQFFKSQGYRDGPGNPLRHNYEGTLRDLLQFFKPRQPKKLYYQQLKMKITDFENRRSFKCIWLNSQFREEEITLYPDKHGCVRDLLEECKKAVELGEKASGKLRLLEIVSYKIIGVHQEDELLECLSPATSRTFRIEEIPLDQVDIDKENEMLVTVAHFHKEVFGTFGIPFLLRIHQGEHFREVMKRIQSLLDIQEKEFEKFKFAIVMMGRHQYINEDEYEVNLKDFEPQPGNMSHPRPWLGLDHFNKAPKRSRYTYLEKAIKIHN

Broadly, the IC50 is the midpoint of a concentration-inhibition curve. Take `CC(=O)c1nc([N+](=O)[O-])c(Sc2cccc(Cl)c2Cl)s1`: the IC50 with HCT-116 is 9.29 µM; in assay [1], 9.93 µM.
For `CC(=O)c1ncc(Sc2cccc(Cl)c2Cl)s1` the same measures were over 50 µM and over 50 µM.
On to `COc1ccc(Sc2sc(C(C)=O)nc2[N+](=O)[O-])cc1OC`, for which the IC50 in the assay on HCT-116 was 24 µM; in assay [1], over 50 µM.
Turning to `CC(=O)c1nc([N+](=O)[O-])c(Sc2c(Cl)cncc2Cl)s1`, the IC50 in assay [2] was determined as 11 µM; in the assay on HCT-116 it was 8.45 µM; in assay [1], 0.67 µM; with NCI-H1299 it was 6.21 µM.
As to `CC(OC(=O)c1ccccc1)c1nc([N+](=O)[O-])c(Sc2c(Cl)cncc2Cl)s1` (stereo unspecified), the values for the IC50 (with HCT-116; in assay [1]) were 12 µM and over 50 µM, respectively.
Take `CC(=O)c1nc([N+](=O)[O-])c(Sc2c(Cl)cccc2Cl)s1`: the IC50 with HCT-116 is 19.3 µM; in assay [1], 4.49 µM.
As for `CC(=O)OC(C)c1nc([N+](=O)[O-])c(Sc2c(Cl)cncc2Cl)s1` (stereo unspecified), the values for the IC50 (in the assay on HCT-116; in assay [1]) were 24.8 µM and over 50 µM, respectively.
For `CC(=O)c1nc([N+](=O)[O-])c(Sc2ccc(F)cc2F)s1` the same measures were 10.2 µM and 6.12 µM.
On to `CC(NCc1ccccc1)c1nc([N+](=O)[O-])c(Sc2c(Cl)cncc2Cl)s1` (stereo unspecified), for which the concentration for half-maximal inhibition (IC50) in the assay on HCT-116 is 11.8 µM; in assay [1], 26.8 µM.
Consider `CC(=O)c1nc([N+](=O)[O-])c(Sc2ccc(Cl)c(Cl)c2)s1`, for which the half-inhibitory concentration (IC50) turned out to be 16.4 µM with HCT-116 and 18 µM in assay [1].
The corresponding values for `O=C(Nc1ccccc1)c1nc([N+](=O)[O-])c(Sc2c(Cl)cncc2Cl)s1` are 12.4 µM and 40.5 µM.
For `COc1cccc(Sc2sc(C(C)=O)nc2[N+](=O)[O-])c1` the same measures were 17.3 µM and over 50 µM.
The corresponding values for `CCCC(=O)OC(C)c1nc([N+](=O)[O-])c(Sc2c(Cl)cncc2Cl)s1` (stereo unspecified) are 11.7 µM and 4.49 µM.
Regarding `CC(=O)c1nc([N+](=O)[O-])c(NCc2ccc(Cl)c(Cl)c2)s1`, the 50% inhibitory concentration (IC50) (in the assay with HCT-116; in assay [1]) was over 50 µM throughout.
As to `O=C(NCc1cccc(F)c1)c1nc([N+](=O)[O-])c(Sc2c(Cl)cncc2Cl)s1`, the IC50 in assay [2] is 6.11 µM; in the assay with HCT-116 it was 6.36 µM; in assay [1], 1.35 µM; in the assay with NCI-H1299, 3.68 µM.
`CC(=O)c1nc([N+](=O)[O-])c(Sc2ccc(Cl)cc2Cl)s1`: the IC50 with HCT-116 came out at 12.5 µM; in assay [1], 16.8 µM.
For `O=C(NCc1ccc(F)cc1)c1nc([N+](=O)[O-])c(Sc2c(Cl)cncc2Cl)s1` the same measures were 11.2 µM and 2.65 µM.
As to `CC(=O)c1ncc(Sc2ccc(Cl)c(Cl)c2)s1`, the IC50 (in the assay on HCT-116; in assay [1]) was over 50 µM in each case.
Turning to `Cc1ccc(CNC(=O)c2nc([N+](=O)[O-])c(Sc3c(Cl)cncc3Cl)s2)cc1`, the IC50 in the assay with HCT-116 is 6.64 µM; in assay [1], 3.65 µM.
The corresponding values for `CC(O)c1nc([N+](=O)[O-])c(Sc2c(Cl)cncc2Cl)s1` (stereo unspecified) are 18.6 µM and 6.95 µM.
The corresponding values for `O=C(NCc1ccccc1)c1nc([N+](=O)[O-])c(Sc2c(Cl)cncc2Cl)s1` are 13.5 µM and 4.21 µM.
